The supplement of paper PMC13380429

Legend:
A549-ACE2 [1] = assay: drug-induced phospholipidosis relative to tamoxifen; higher = more phospholipidosis
Calu-3 [2] = assay: drug sensitivity score (DSS) for viability; higher = more toxic; extreme values may be limits of the assay; details: 72 h
Vero E6 [3] = assay: as above; details: 72 h
Caco-2 [4] = assay: as above; details: 72 h
HepG2 [5] = assay: as above; details: 72 h
U2OS [6] = assay: as above; details: 72 h
A549-ACE2 [7] = assay: phospholipidosis EC50; higher = less potent phospholipidosis inducer
Calu-3 [8] = assay: cell viability relative to DMSO; higher = less toxic; details: 72 h
Vero E6 [9] = assay: as above; details: 72 h
Caco-2 [10] = assay: as above; details: 72 h
HepG2 [11] = assay: as above; details: 72 h
U2OS [12] = assay: as above; details: 72 h
[13] = system: A549-ACE2 infected with SARS-CoV-2; assay: cell count relative to DMSO; higher = less toxic; details: 24 h
Calu-3 [14] = assay: relative viability EC50 (midpoint between 100% and the lowest measured viability); higher = less toxic; details: 72 h
Vero E6 [15] = assay: as above; details: 72 h
HepG2 [16] = assay: as above; details: 72 h
U2OS [17] = assay: as above; details: 72 h
[18] = system: A549-ACE2 infected with SARS-CoV-2; assay: morphology score (similarity to uninfected cells); higher = more like uninfected cells; details: 24 h
[19] = system: A549-ACE2 infected with SARS-CoV-2; assay: SARS-CoV-2 infection rate relative to DMSO; higher = more infection; details: 24 h
Caco-2 [20] = assay: relative viability EC50 (midpoint between 100% and the lowest measured viability); higher = less toxic; details: 72 h

COc1ccc(NC(=O)c2ccc(-c3ccc(-c4noc(C)n4)cc3C)cc2)cc1OCCN(C)C
drug-induced phospholipidosis [%], A549-ACE2 [1]
Details | 0.3 µM | 0.833333 µM | 3.33333 µM | 6.66667 µM | 10 µM
24 h | 2.56 | 13.6 | 76.9 | 75.2 | 56
48 h | 4.9 | 6.68 | 68 | 79.2 | –
72 h | 5.85 | 5.56 | 57.7 | 86.2 | –

Details | drug sensitivity score | relative viability EC50 [µM]
Caco-2 [4] | 3.7 | –
Calu-3 [2] | 6.1 | –
Calu-3 [14] | – | 2.47
HepG2 [5] | 6.8 | –
HepG2 [16] | – | 2.29
U2OS [6] | 2.8 | –
U2OS [17] | – | 3.33
Vero E6 [3] | 5.5 | –
Vero E6 [15] | – | 2.45

Details | SARS-CoV-2 infection rate [%] | cell count [%] | cell viability [%] | morphology score | phospholipidosis EC50 [µM]
A549-ACE2 [7], 24 h | – | – | – | – | 1
A549-ACE2 [7], 48 h | – | – | – | – | 2.13
A549-ACE2 [7], 72 h | – | – | – | – | 3.02
Caco-2 [10], 1 nM | – | – | 101 | – | –
Caco-2 [10], 10 nM | – | – | 102 | – | –
Caco-2 [10], 100 nM | – | – | 104 | – | –
Caco-2 [10], 1000 nM | – | – | 92.4 | – | –
Caco-2 [10], 10000 nM | – | – | 54 | – | –
Calu-3 [8], 1 nM | – | – | 101 | – | –
Calu-3 [8], 10 nM | – | – | 102 | – | –
Calu-3 [8], 100 nM | – | – | 105 | – | –
Calu-3 [8], 1000 nM | – | – | 92.5 | – | –
Calu-3 [8], 10000 nM | – | – | 11.2 | – | –
HepG2 [11], 1 nM | – | – | 121 | – | –
HepG2 [11], 10 nM | – | – | 95.5 | – | –
HepG2 [11], 100 nM | – | – | 109 | – | –
HepG2 [11], 1000 nM | – | – | 90.1 | – | –
HepG2 [11], 10000 nM | – | – | 6.6 | – | –
U2OS [12], 1 nM | – | – | 101 | – | –
U2OS [12], 10 nM | – | – | 105 | – | –
U2OS [12], 100 nM | – | – | 101 | – | –
U2OS [12], 1000 nM | – | – | 102 | – | –
U2OS [12], 10000 nM | – | – | 44.7 | – | –
Vero E6 [9], 1 nM | – | – | 98.1 | – | –
Vero E6 [9], 10 nM | – | – | 98 | – | –
Vero E6 [9], 100 nM | – | – | 96.7 | – | –
Vero E6 [9], 1000 nM | – | – | 93.1 | – | –
Vero E6 [9], 10000 nM | – | – | 20.1 | – | –
[13], 0.1 µM | – | 102 | – | – | –
[13], 0.3 µM | – | 99 | – | – | –
[13], 1 µM | – | 109 | – | – | –
[13], 3 µM | – | 126 | – | – | –
[18], 0.1 µM | – | – | – | -0.01 | –
[18], 0.3 µM | – | – | – | 0.09 | –
[18], 1 µM | – | – | – | 0.43 | –
[18], 3 µM | – | – | – | 0.77 | –
[19], 0.1 µM | 97 | – | – | – | –
[19], 0.3 µM | 95 | – | – | – | –
[19], 1 µM | 82 | – | – | – | –
[19], 3 µM | 26 | – | – | – | –

NC1(Cc2ccc(Cl)cc2)CCN(c2ncnc3[nH]ccc23)CC1
drug-induced phospholipidosis [%], A549-ACE2 [1]
Details | 0.3 µM | 0.833333 µM | 3.33333 µM | 6.66667 µM | 10 µM | 30 µM
24 h | 2.53 | 6.69 | 24.4 | 64.2 | 86.2 | 95.1
48 h | 0.01 | -2.52 | 9.67 | 37.5 | 65.9 | 86.8
72 h | -2.31 | -5.85 | 5.48 | 20.6 | 47.9 | 73.3

Details | drug sensitivity score | relative viability EC50 [µM]
Caco-2 [4] | 0.7 | –
Caco-2 [20] | – | > 10
Calu-3 [2] | 0.5 | –
Calu-3 [14] | – | > 10
HepG2 [5] | 5.6 | –
HepG2 [16] | – | 2.18
U2OS [6] | 3.3 | –
Vero E6 [3] | 3 | –

Details | SARS-CoV-2 infection rate [%] | cell count [%] | cell viability [%] | morphology score | phospholipidosis EC50 [µM]
A549-ACE2 [7], 24 h | – | – | – | – | 5.25
A549-ACE2 [7], 48 h | – | – | – | – | 7.16
A549-ACE2 [7], 72 h | – | – | – | – | 8.44
Caco-2 [10], 1 nM | – | – | 93.7 | – | –
Caco-2 [10], 10 nM | – | – | 109 | – | –
Caco-2 [10], 100 nM | – | – | 95.4 | – | –
Caco-2 [10], 1000 nM | – | – | 98.2 | – | –
Caco-2 [10], 10000 nM | – | – | 81.7 | – | –
Calu-3 [8], 1 nM | – | – | 95.4 | – | –
Calu-3 [8], 10 nM | – | – | 99.9 | – | –
Calu-3 [8], 100 nM | – | – | 100 | – | –
Calu-3 [8], 1000 nM | – | – | 105 | – | –
Calu-3 [8], 10000 nM | – | – | 77.5 | – | –
HepG2 [11], 1 nM | – | – | 100 | – | –
HepG2 [11], 10 nM | – | – | 102 | – | –
HepG2 [11], 100 nM | – | – | 94.5 | – | –
HepG2 [11], 1000 nM | – | – | 91.1 | – | –
HepG2 [11], 10000 nM | – | – | 26.3 | – | –
U2OS [12], 1 nM | – | – | 96.9 | – | –
U2OS [12], 10 nM | – | – | 101 | – | –
U2OS [12], 100 nM | – | – | 93 | – | –
U2OS [12], 1000 nM | – | – | 95 | – | –
U2OS [12], 10000 nM | – | – | 52.6 | – | –
Vero E6 [9], 1 nM | – | – | 97.6 | – | –
Vero E6 [9], 10 nM | – | – | 100 | – | –
Vero E6 [9], 100 nM | – | – | 96.8 | – | –
Vero E6 [9], 1000 nM | – | – | 88.5 | – | –
Vero E6 [9], 10000 nM | – | – | 65.3 | – | –
[13], 0.1 µM | – | 104 | – | – | –
[13], 0.3 µM | – | 105 | – | – | –
[13], 1 µM | – | 104 | – | – | –
[13], 3 µM | – | 105 | – | – | –
[18], 0.1 µM | – | – | – | 0.13 | –
[18], 0.3 µM | – | – | – | -0.05 | –
[18], 1 µM | – | – | – | 0.15 | –
[18], 3 µM | – | – | – | 0.48 | –
[19], 0.1 µM | 99 | – | – | – | –
[19], 0.3 µM | 106 | – | – | – | –
[19], 1 µM | 104 | – | – | – | –
[19], 3 µM | 85 | – | – | – | –
